ChEMBL document CHEMBL1909046, “DrugMatrix in vitro pharmacology data”
pIC50, pKi: −log10 of the molar value.

What was measured:
[1] = target: T1, Muscarinic acetylcholine receptor M5 (Homo sapiens, UniProt P08912); type: cell membranes, CHO-K1, Membrane; settings: for IC50: cho-k1; as to all read-outs here: in other assays of this panel Not Active means under 50% inhibition at 10 µM
T1 sequence (P08912 whole entry): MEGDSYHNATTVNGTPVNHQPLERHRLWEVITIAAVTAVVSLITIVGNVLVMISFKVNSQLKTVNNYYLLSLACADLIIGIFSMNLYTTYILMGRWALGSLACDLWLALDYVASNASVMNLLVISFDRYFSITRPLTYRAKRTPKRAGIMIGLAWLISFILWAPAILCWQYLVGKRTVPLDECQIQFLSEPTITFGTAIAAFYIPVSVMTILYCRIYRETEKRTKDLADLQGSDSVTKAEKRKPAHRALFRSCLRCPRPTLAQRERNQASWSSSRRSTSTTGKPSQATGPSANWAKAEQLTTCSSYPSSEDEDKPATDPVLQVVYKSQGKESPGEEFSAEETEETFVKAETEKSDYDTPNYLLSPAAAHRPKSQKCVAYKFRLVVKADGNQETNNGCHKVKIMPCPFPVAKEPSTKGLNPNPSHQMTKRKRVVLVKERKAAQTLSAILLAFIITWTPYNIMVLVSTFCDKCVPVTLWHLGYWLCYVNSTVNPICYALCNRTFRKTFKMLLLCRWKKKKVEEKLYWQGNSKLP

Cytochrome P450 2C9 = Cytochrome P450 2C9 (Homo sapiens, UniProt P11712); settings: bti-tn-5b1-4; also: in other assays of this panel Not Active means under 50% inhibition at 10 µM
[2] = DRUGMATRIX: Serotonin (5-Hydroxytryptamine) 5-HT3 radioligand binding (ligand: [3H] GR-65630); type: cell membranes, Membrane; settings: hek293; Not Active = under 50% inhibition at 10 µM
[3] = target: T2, C-X-C chemokine receptor type 2 (Homo sapiens, UniProt P25025); type: cell membranes, Membrane; settings: cho-k1; also: in other assays of this panel Not Active means under 50% inhibition at 10 µM
T2 sequence (P25025 whole entry): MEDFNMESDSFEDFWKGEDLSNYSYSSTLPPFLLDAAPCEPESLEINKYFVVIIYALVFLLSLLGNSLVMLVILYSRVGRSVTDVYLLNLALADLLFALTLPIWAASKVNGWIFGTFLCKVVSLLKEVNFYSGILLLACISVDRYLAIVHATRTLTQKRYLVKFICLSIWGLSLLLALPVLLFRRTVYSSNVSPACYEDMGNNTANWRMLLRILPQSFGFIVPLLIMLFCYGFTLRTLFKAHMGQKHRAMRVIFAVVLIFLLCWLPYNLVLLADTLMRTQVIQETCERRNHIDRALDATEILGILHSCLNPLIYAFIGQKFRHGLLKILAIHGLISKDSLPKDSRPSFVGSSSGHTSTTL

Cytochrome P450 2E1 = Cytochrome P450 2E1 (Homo sapiens, UniProt P05181); settings: bti-tn-5b1-4; also: in other assays of this panel Not Active means under 50% inhibition at 10 µM
[4] = target: T3, 5-hydroxytryptamine receptor 1A (Rattus norvegicus, UniProt P19327); type: cell membranes, CHO-K1, Membrane; settings: cho-k1; also: in other assays of this panel Not Active means under 50% inhibition at 10 µM
T3 sequence (P19327 whole entry): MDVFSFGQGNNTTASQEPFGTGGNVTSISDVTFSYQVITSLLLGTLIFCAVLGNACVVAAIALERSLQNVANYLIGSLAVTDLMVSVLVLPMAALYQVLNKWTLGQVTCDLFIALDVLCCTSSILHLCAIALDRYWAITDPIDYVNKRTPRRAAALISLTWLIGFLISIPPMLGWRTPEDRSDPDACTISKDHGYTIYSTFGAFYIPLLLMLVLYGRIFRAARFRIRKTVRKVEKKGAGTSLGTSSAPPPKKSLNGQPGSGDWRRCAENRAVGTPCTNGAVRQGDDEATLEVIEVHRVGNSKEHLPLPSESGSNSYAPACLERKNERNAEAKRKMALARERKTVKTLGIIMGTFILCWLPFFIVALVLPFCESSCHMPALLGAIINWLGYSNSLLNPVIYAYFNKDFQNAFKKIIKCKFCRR

Sequence of Cytochrome P450 2E1 (P05181 whole entry): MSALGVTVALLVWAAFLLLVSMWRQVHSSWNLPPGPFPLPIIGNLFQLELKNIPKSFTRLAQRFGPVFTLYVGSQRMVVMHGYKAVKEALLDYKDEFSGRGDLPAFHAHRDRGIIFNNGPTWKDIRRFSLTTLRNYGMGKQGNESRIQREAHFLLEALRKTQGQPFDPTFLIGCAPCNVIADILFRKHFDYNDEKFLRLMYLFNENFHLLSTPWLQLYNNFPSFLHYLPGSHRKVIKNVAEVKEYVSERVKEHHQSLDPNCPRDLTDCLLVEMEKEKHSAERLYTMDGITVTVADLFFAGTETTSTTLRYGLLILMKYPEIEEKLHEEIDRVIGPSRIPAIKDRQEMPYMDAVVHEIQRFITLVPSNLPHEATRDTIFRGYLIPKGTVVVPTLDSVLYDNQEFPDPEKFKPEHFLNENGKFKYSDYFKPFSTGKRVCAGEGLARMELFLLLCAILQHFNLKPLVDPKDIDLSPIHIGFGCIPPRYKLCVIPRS
Sequence of Cytochrome P450 2C9 (P11712 whole entry): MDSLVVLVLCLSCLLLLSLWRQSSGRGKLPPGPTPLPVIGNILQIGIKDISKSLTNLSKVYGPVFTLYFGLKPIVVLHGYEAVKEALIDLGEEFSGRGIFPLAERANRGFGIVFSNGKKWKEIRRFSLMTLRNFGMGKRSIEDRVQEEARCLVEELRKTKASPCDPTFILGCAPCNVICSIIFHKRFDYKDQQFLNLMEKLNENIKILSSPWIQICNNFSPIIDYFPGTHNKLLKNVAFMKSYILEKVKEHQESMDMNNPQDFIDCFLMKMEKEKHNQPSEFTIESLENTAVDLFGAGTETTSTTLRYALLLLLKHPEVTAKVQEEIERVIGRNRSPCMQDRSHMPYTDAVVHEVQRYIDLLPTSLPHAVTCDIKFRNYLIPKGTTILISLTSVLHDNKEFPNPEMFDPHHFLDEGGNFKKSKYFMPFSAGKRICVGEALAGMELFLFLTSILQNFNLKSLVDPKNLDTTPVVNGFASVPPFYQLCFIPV

SMILES	IC50 [1]	IC50 (Cytochrome P450 2C9)	Ki (Cytochrome P450 2C9)	IC50 [2]	Ki [2]	IC50 [3]	IC50 (Cytochrome P450 2E1)	Ki (Cytochrome P450 2E1)	IC50 [4]	pIC50 ([1]; read-out: IC50)	pKi ([1]; read-out: Ki)
C[C@H]1[C@H](NC(=O)/C(=N\OC(C)(C)C(=O)O)c2csc(N)n2)C(=O)N1S(=O)(=O)O [AZTREONAM]	Not Active	Not Active	Not Active	Not Active	Not Active	Not Active	Not Active	Not Active	Not Active		
CO/N=C(\C(=O)N[C@@H]1C(=O)N2C(C(=O)O)=C(COC(C)=O)CS[C@H]12)c1csc(N)n1 [CEFOTAXIME]	Not Active	Not Active	Not Active	Not Active	Not Active	Not Active	Not Active	Not Active	Not Active		
CC(C)c1c(C(=O)Nc2ccccc2)c(-c2ccccc2)c(-c2ccc(F)cc2)n1CC[C@@H](O)C[C@@H](O)CC(=O)O [ATORVASTATIN]	Not Active			Not Active	Not Active	Not Active	Not Active	Not Active	Not Active		
COc1cccc2c1C(=O)c1c(O)c3c(c(O)c1C2=O)C[C@@](O)(C(C)=O)C[C@@H]3O[C@H]1C[C@H](N)[C@H](O)[C@H](C)O1 [DAUNORUBICIN]	Not Active	Not Active	Not Active	Not Active	Not Active	Not Active	Not Active	Not Active	Not Active		
COc1ccccc1N	Not Active	Not Active	Not Active	Not Active	Not Active	Not Active	Not Active	Not Active	Not Active		
C[S+](C)[O-] [DIMETHYL SULFOXIDE]	Not Active	Not Active	Not Active	Not Active	Not Active	Not Active	Not Active	Not Active	Not Active		
C#C[C@]1(O)CC[C@H]2[C@@H]3CCC4=CC(=O)CC[C@]4(C)[C@H]3CC[C@@]21C [ETHISTERONE]	Not Active	Not Active	Not Active	Not Active	Not Active	Not Active	Not Active	Not Active	Not Active		
NS(=O)(=O)c1cc(C2(O)NC(=O)c3ccccc32)ccc1Cl (stereo not given) [CHLORTHALIDONE]	Not Active	Not Active	Not Active	Not Active	Not Active	Not Active	Not Active	Not Active	Not Active		
O=c1c(-c2ccc(O)cc2)coc2cc(O)cc(O)c12 [GENISTEIN]	Not Active	Not Active	Not Active	Not Active	Not Active	Not Active	Not Active	Not Active	Not Active		
CC(O)(P(=O)(O)O)P(=O)(O)O [ETIDRONIC ACID]	Not Active	Not Active	Not Active	Not Active	Not Active	Not Active	Not Active	Not Active	Not Active		
COc1ccc2c(c1OC)C(=O)O[C@@H]2[C@H]1c2c(cc3c(c2OC)OCO3)CCN1C [NOSCAPINE]	Not Active			Not Active	Not Active	Not Active	Not Active	Not Active	Not Active		
CCN(CC)CCNC(=O)c1ccc(N)cc1 [PROCAINAMIDE]	Not Active	Not Active	Not Active	Not Active	Not Active	Not Active	Not Active	Not Active	Not Active		
Cc1c(O)cccc1C(=O)N[C@@H](CSc1ccccc1)[C@H](O)CN1C[C@H]2CCCC[C@H]2C[C@H]1C(=O)NC(C)(C)C		Not Active	Not Active	Not Active	Not Active	Not Active	Not Active	Not Active	Not Active	4.07	4.21
Cc1cc(O)cc(C)c1Cl [CHLOROXYLENOL]	Not Active	Not Active	Not Active	Not Active	Not Active	Not Active	Not Active	Not Active	Not Active		
C[C@H]1COc2c(N3CCN(C)CC3)c(F)cc3c(=O)c(C(=O)O)cn1c23.C[C@H]1COc2c(N3CCN(C)CC3)c(F)cc3c(=O)c(C(=O)O)cn1c23.O [LEVOFLOXACIN]	Not Active	Not Active	Not Active	Not Active	Not Active	Not Active	Not Active	Not Active	Not Active		
C[N+](C)(C)C[C@H](O)CC(=O)[O-] [LEVOCARNITINE]	Not Active	Not Active	Not Active	Not Active	Not Active	Not Active	Not Active	Not Active	Not Active		
C[C@]12CC[C@@H]3c4ccc(O)cc4CC[C@H]3[C@@H]1C[C@@H](O)[C@@H]2O [ESTRIOL]	Not Active	Not Active	Not Active	Not Active	Not Active	Not Active	Not Active	Not Active	Not Active		
O=C(O)P(=O)(O)O [FOSCARNET]	Not Active	Not Active	Not Active	Not Active	Not Active	Not Active	Not Active	Not Active	Not Active		
C[C@H]1O[C@H](O[C@H]2[C@H](O)[C@@H](O)[C@@H](O[C@H]3[C@H](O)[C@@H](O)C(O)O[C@@H]3CO)O[C@@H]2CO)[C@H](O)[C@@H](O)[C@@H]1N[C@H]1C=C(CO)[C@@H](O)[C@H](O)[C@H]1O (stereo not given in full) [ACARBOSE]	Not Active	Not Active	Not Active	Not Active	Not Active	Not Active	Not Active	Not Active	Not Active		
CN(C)C(=N)NC(=N)N [METFORMIN]	Not Active	Not Active	Not Active	Not Active	Not Active	Not Active	Not Active	Not Active	Not Active		
Cn1c(=O)c2c(ncn2C)n(C)c1=O [CAFFEINE]	Not Active	Not Active	Not Active	Not Active	Not Active	Not Active	Not Active	Not Active	Not Active		
COc1cc(OC)c(C(=O)CCCN2CCCC2)c(OC)c1 [BUFLOMEDIL]	Not Active	Not Active	Not Active	Not Active	Not Active	Not Active	Not Active	Not Active	Not Active		
NC12CC3CC(CC(C3)C1)C2 [AMANTADINE]	Not Active			Not Active	Not Active	Not Active			Not Active		
